Test results reported in BindingDB's records for doi:10.1016/j.bmc.2019.01.035 (Florida A&M University, 2019).

Target: Sigma non-opioid intracellular receptor 1 (Homo sapiens, UniProt Q99720)
Assay: Displacement [3H]-Pentazocine from sigma 1 receptor (unknown origin) expressed in HEK cell membranes

Sigma non-opioid intracellular receptor 1, sequence (Q99720 whole entry): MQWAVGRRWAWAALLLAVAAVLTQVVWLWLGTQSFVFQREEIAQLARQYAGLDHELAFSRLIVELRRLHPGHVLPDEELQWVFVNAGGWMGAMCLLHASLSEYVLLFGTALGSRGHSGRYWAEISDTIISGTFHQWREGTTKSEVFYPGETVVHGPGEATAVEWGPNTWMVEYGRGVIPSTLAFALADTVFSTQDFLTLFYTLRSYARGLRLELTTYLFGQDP

Ki: 63 nM
Compound: O=C(CCCN1CCCN(c2ccccn2)CC1)c1ccc(F)cc1
